Read-outs that look alike come from different tables or passages of the source.
Assays:
[1] = clinical trials in AD patients; cited from earlier work
[2] = large prevention trial, patients having mild cognitive impairment; placebo 4.5%; cited from earlier work
Aβ42 = experiment: Detection of secreted Aβ42 with Biosource ELISA kit in H4 cells expressing APP695; type: cell-based; conditions: read-out: Ab42 IC50
[3] = Ab42 lowering, cell based assay
[4] = IC50 value for Ab42 lowering in e.g. the assay described in Example 6

Row | Compound | IC50 (Aβ42; [3]) [µM] | other results
1 | COc1ccc2cc([C@H](C)C(=O)O)ccc2c1 [Naproxen] | – | efficacy for treating AD [1]: failed to show efficacy
2 | CS(=O)(=O)c1ccc(C2=C(c3ccccc3)C(=O)OC2)cc1 [rofecoxib] | – | patients who developed AD [2]: 6.4%; efficacy for treating AD [1]: failed to show efficacy
3 | Cc1onc(-c2ccccc2)c1-c1cc2c(n1-c1ccc(CCCC(=O)O)cc1)CCc1ccccc1-2 [4-{4-[2-(5-methyl-3-phenylisoxazol-4-yl)-4,5-dihydrobenzo[e]indol-3-yl]-phenyl} butyric acid] | 1.5 | –
4 | O=C(O)c1cccc(-c2cc3c(n2-c2cccnc2)CCc2ccccc2-3)c1 [3-(3-pyridin-3-yl-4 5-dihydro-3H-benzo[e]indol-2-yl) benzoic acid] | > 100 | –
5 | O=C(O)CCCc1ccc(-n2c(-c3cc(-c4ccccc4)no3)cc3c4ccccc4ccc32)cc1 [4-{4-[2-(3-phenylisoxazol-5-yl)-benzo[e]indol-3-yl]-phenyl} butyric acid] | 4.5 | –
6 | O=C(O)c1cccc(-n2c(-c3ccccc3)cc3c4ccccc4ccc32)c1 [Compound 87, 3-(2-phenylbenzo[e]indol-3-yl) benzoic acid] | – | IC50 (Aβ42; [4]): 12 µM
7 | CC1CCCc2c1cc(-c1ccccc1)n2-c1cccc(C(=O)O)c1 (stereo not shown) [Compound 91, 3-(4-methyl-2-phenyl-4,5,6,7-tetrahydroindol-1-yl) benzoic acid] | – | IC50 (Aβ42; [4]): 3 µM
8 | O=C(O)c1cccc(-n2c(-c3cccnc3)cc3c4ccccc4ccc32)c1 [3-(2-pyridin-3-yl-benzo[e]indol-3-yl) benzoic acid] | > 100 | –

Further lines, with some results ahead:

Row | IC50 (Aβ42; [3]) [µM] | Compound | other results
9 | 24 | c1ccc(-c2cc3c(n2-c2cccc(-c4nn[nH]n4)c2)CCc2ccccc2-3)cc1 [drawing 1720, 2-phenyl-3-[3-(2H-tetrazol-5-yl)-phenyl]-4,5-dihydro-3H-benzo[e]indole] | –
10 | 11.7 | CC(C)(C)C1CCc2c(cc(-c3ccc(Cl)c(Cl)c3)n2-c2ccc(C(=O)O)o2)C1 (stereo not shown) [5-[5-tButyl-2-(3,4-dichlorophenyl)-4,5,6,7-tetrahydroindol-1-yl] furan-2-carboxylic acid] | –
11 | 5.1 | CCC(C)(C)C1CCc2c(cc(-c3ccccc3)n2-c2ccc(C(=O)O)o2)C1 (stereo not shown) [5-[5-(1,1-dimethylpropyl)-2-phenyl-4,5,6,7-tetrahydroindol-1-yl]-furan-2-carboxylic acid] | –
12 | 63 | CC(C)(C)C1CCc2c(cc(-c3ccccc3)n2-c2nnc[nH]2)C1 (stereo not shown) [5-tButyl-2-phenyl-1-(4H-[1,2,4]triazol-3-yl)-4,5,6,7-tetrahydro-1H-indole] | –

From patent publication US9034871B2, “Compounds for Alzheimer's disease” (priority 2004, dated 2015)
